Values quoted from earlier work in patent US20240228966A1, “UROLITHIN FOR INCREASING STEM CELL FUNCTION” (SOCIETE DES PRODUITS NESTLE S.A., priority 2021, published 2024).

System: human HSCs
Details: culture media supplemented with nicotinamide riboside; cited from earlier work

## NC(=O)c1ccc[n+]([C@@H]2O[C@H](CO)[C@@H](O)[C@H]2O)c1 [nicotinamide riboside]
  levels of engraftment in recipient humanised mice: significantly higher levels of engraftment
